{"source": "PubChem BioAssay AID1963829", "about": "(Molecular Pharmacology Branch, DTP, NCI, 2024);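 further: spheroids exposed to drugs for seven days before viability read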;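 on viability, T/C: 100% = DMSO vehicle control wells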", "tested_on": "935938-334-R-J1-PDC complex spheroid viability", "assay": "Anticancer human tumor 935938-334-R-J1-PDC patient-derived small intestine adenocarcinoma cell line growth inhibition [POLQ]", "conditions": "for IC50: curve of first compound; for viability, T/C: stronger effect = lower value", "how_it_was_run": "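Three-cell-type spheroids modelling solid tumor plus stroma served as the readout system; POL inhibitors were tested individually and in combination, concentration ranges set by clinical Cmax where known.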", "data": [{"smiles": "C=CC(=O)N1CCN(c2nc(=O)n(-c3c(C)ccnc3C(C)C)c3nc(-c4c(O)cccc4F)c(F)cc23)C(C)C1", "note": "(configuration not stated) + Cc1cccc(N(C)C(=O)C2C(O)CCN2c2nc(C)cc(C(F)(F)F)c2C#N)c1", "values": [{"measurement": "IC50", "setting": "second compound 0.0316 µM", "result": "> 10", "unit": "µM"}, {"measurement": "IC50", "setting": "second compound 0.1 µM", "result": "> 10", "unit": "µM"}, {"measurement": "IC50", "setting": "second compound 0.316 µM", "result": "> 10", "unit": "µM"}, {"measurement": "IC50", "setting": "second compound 1 µM", "result": "> 10", "unit": "µM"}, {"measurement": "IC50", "setting": "second compound 3.16 µM", "result": "> 10", "unit": "µM"}, {"measurement": "IC50", "setting": "second compound 10 µM", "result": "> 10", "unit": "µM"}, {"measurement": "viability, T/C", "setting": "second compound 0.0316 µM, first compound 0.0316 µM", "result": 94.3, "unit": "%"}, {"measurement": "viability, T/C", "setting": "second compound 0.0316 µM, first compound 0.1 µM", "result": 98.4, "unit": "%"}, {"measurement": "viability, T/C", "setting": "second compound 0.0316 µM, first compound 0.316 µM", "result": 77, "unit": "%"}, {"measurement": "viability, T/C", "setting": "second compound 0.0316 µM, first compound 1 µM", "result": 101, "unit": "%"}, {"measurement": "viability, T/C", "setting": "second compound 0.0316 µM, first compound 3.16 µM", "result": 88.1, "unit": "%"}, {"measurement": "viability, T/C", "setting": "second compound 0.0316 µM, first compound 10 µM", "result": 109, "unit": "%"}, {"measurement": "viability, T/C", "setting": "second compound 0.1 µM, first compound 0.0316 µM", "result": 116, "unit": "%"}, {"measurement": "viability, T/C", "setting": "second compound 0.1 µM, first compound 0.1 µM", "result": 97.8, "unit": "%"}, {"measurement": "viability, T/C", "setting": "second compound 0.1 µM, first compound 0.316 µM", "result": 91.3, "unit": "%"}, {"measurement": "viability, T/C", "setting": "second compound 0.1 µM, first compound 1 µM", "result": 113, "unit": "%"}, {"measurement": "viability, T/C", "setting": "second compound 0.1 µM, first compound 3.16 µM", "result": 90.4, "unit": "%"}, {"measurement": "viability, T/C", "setting": "second compound 0.1 µM, first compound 10 µM", "result": 70.1, "unit": "%"}, {"measurement": "viability, T/C", "setting": "second compound 0.316 µM, first compound 0.0316 µM", "result": 76.7, "unit": "%"}, {"measurement": "viability, T/C", "setting": "second compound 0.316 µM, first compound 0.1 µM", "result": 80.9, "unit": "%"}, {"measurement": "viability, T/C", "setting": "second compound 0.316 µM, first compound 0.316 µM", "result": 105, "unit": "%"}, {"measurement": "viability, T/C", "setting": "second compound 0.316 µM, first compound 1 µM", "result": 100, "unit": "%"}, {"measurement": "viability, T/C", "setting": "second compound 0.316 µM, first compound 3.16 µM", "result": 81.2, "unit": "%"}, {"measurement": "viability, T/C", "setting": "second compound 0.316 µM, first compound 10 µM", "result": 106, "unit": "%"}, {"measurement": "viability, T/C", "setting": "second compound 1 µM, first compound 0.0316 µM", "result": 85.8, "unit": "%"}, {"measurement": "viability, T/C", "setting": "second compound 1 µM, first compound 0.1 µM", "result": 111, "unit": "%"}, {"measurement": "viability, T/C", "setting": "second compound 1 µM, first compound 0.316 µM", "result": 82.7, "unit": "%"}, {"measurement": "viability, T/C", "setting": "second compound 1 µM, first compound 1 µM", "result": 108, "unit": "%"}, {"measurement": "viability, T/C", "setting": "second compound 1 µM, first compound 3.16 µM", "result": 92.2, "unit": "%"}, {"measurement": "viability, T/C", "setting": "second compound 1 µM, first compound 10 µM", "result": 99.7, "unit": "%"}, {"measurement": "viability, T/C", "setting": "second compound 3.16 µM, first compound 0.0316 µM", "result": 96, "unit": "%"}, {"measurement": "viability, T/C", "setting": "second compound 3.16 µM, first compound 0.1 µM", "result": 95, "unit": "%"}, {"measurement": "viability, T/C", "setting": "second compound 3.16 µM, first compound 0.316 µM", "result": 74.6, "unit": "%"}, {"measurement": "viability, T/C", "setting": "second compound 3.16 µM, first compound 1 µM", "result": 96.3, "unit": "%"}, {"measurement": "viability, T/C", "setting": "second compound 3.16 µM, first compound 3.16 µM", "result": 102, "unit": "%"}, {"measurement": "viability, T/C", "setting": "second compound 3.16 µM, first compound 10 µM", "result": 79.1, "unit": "%"}, {"measurement": "viability, T/C", "setting": "second compound 10 µM, first compound 0.0316 µM", "result": 77.8, "unit": "%"}, {"measurement": "viability, T/C", "setting": "second compound 10 µM, first compound 0.1 µM", "result": 80.6, "unit": "%"}, {"measurement": "viability, T/C", "setting": "second compound 10 µM, first compound 0.316 µM", "result": 64.8, "unit": "%"}, {"measurement": "viability, T/C", "setting": "second compound 10 µM, first compound 1 µM", "result": 94.9, "unit": "%"}, {"measurement": "viability, T/C", "setting": "second compound 10 µM, first compound 3.16 µM", "result": 118, "unit": "%"}, {"measurement": "viability, T/C", "setting": "second compound 10 µM, first compound 10 µM", "result": 107, "unit": "%"}]}]}
